Data as given in the NIST ThermoML archive (doi:10.1021/je800244q).
“And” between values parts separate entries of the source, which are not always exact repeats. Identical values can stand only once.

Key:
[1] = molar heat capacity at constant pressure; details: 101.33 kPa, Liquid, Small sample (50 mg) DSC
[2] = Liquid; for mass density: Vibrating tube method; for speed of sound: Pulse-echo method
[3] = refractive index (Na D-line) (dimensionless); details: 298.15 K; 101.33 kPa; Liquid; Standard Abbe refractometry

CC(O)CC(C)(C)O (centres undefined) [2-methyl-2,4-pentanediol]
[1]
Details | molar heat capacity at constant pressure [J/K/mol]
284.16 K | 250.63
288.14 K | 254.33
293.14 K | 258.4
298.16 K | 262.4
303.15 K | 266.42
308.15 K | 270.35
313.15 K | 274.7
318.15 K | 279.12
323.15 K | 283.62
328.15 K | 288.35
333.15 K | 293.21
338.15 K | 298.13
343.15 K | 303.01
348.15 K | 307.95
353.14 K | 314.8
358.16 K | 318.39

[2]
Details | mass density | speed of sound [m/s]
278.15 K, 101.33 kPa | 932.344 kg/m3 | –
283.15 K, 101.33 kPa | 928.795 kg/m3 | –
288.14 K, 100 kPa | – | 1326.5
288.15 K, 101.33 kPa | 925.238 kg/m3 | 1326.4
291.11 K, 100 kPa | – | 1317.1
292.85 K, 101320 kPa | – | 1675.8
292.86 K, 15200 kPa | – | 1382.2
292.86 K, 30390 kPa | – | 1443.5
292.86 K, 45590 kPa | – | 1499.7
292.86 K, 60790 kPa | – | 1551.7
292.86 K, 75990 kPa | – | 1600.9
292.86 K, 91180 kPa | – | 1646.9
293.14 K, 100 kPa | – | 1310.7
293.15 K, 101.33 kPa | 921.71 kg/m3 and 921.676 kg/m3 | 1310.7
298.15 K, 100 kPa | – | 1295.2
298.15 K, 101.33 kPa | 918.16 kg/m3 and 918.11 kg/m3 | 1295.2
298.15 K, 15200 kPa | – | 1366.7
298.15 K, 30390 kPa | – | 1428.8
298.15 K, 45590 kPa | – | 1485.4
298.15 K, 60790 kPa | – | 1538.1
298.15 K, 75990 kPa | – | 1587.3
298.15 K, 91180 kPa | – | 1634
298.15 K, 101320 kPa | – | 1663.4
301.02 K, 100 kPa | – | 1286.3
303.13 K, 30390 kPa | – | 1414.6
303.14 K, 15200 kPa | – | 1351.4
303.14 K, 45590 kPa | – | 1472.1
303.14 K, 60790 kPa | – | 1525.2
303.14 K, 75990 kPa | – | 1575.1
303.14 K, 91180 kPa | – | 1622.1
303.14 K, 101320 kPa | – | 1651.8
303.15 K, 100 kPa | – | 1279.9
303.15 K, 101.33 kPa | 914.59 kg/m3 | 1279.8
303.16 K, 101.33 kPa | 914.548 kg/m3 | –
308.13 K, 15200 kPa | – | 1336.9
308.13 K, 30390 kPa | – | 1400.8
308.13 K, 45590 kPa | – | 1459.2
308.13 K, 60790 kPa | – | 1513
308.13 K, 75990 kPa | – | 1563.1
308.13 K, 91180 kPa | – | 1610.8
308.13 K, 101320 kPa | – | 1640.8
308.15 K, 100 kPa | – | 1264.7
308.15 K, 101.33 kPa | 910.981 kg/m3 and 911.02 kg/m3 | 1264.7
308.18 K, 100 kPa | – | 1264.6
313.1 K, 15200 kPa | – | 1323
313.1 K, 30390 kPa | – | 1387.6
313.1 K, 45590 kPa | – | 1446.5
313.1 K, 60790 kPa | – | 1501
313.1 K, 75990 kPa | – | 1551.6
313.1 K, 101320 kPa | – | 1629.9
313.11 K, 91180 kPa | – | 1599.6
313.15 K, 101.33 kPa | 907.43 kg/m3 and 907.411 kg/m3 | 1249.6
313.16 K, 100 kPa | – | 1249.6
318.15 K, 101.33 kPa | 903.84 kg/m3 and 903.834 kg/m3 | 1234.7
318.19 K, 100 kPa | – | 1234.6
318.29 K, 15200 kPa | – | 1308.8
318.29 K, 30390 kPa | – | 1374.5
318.29 K, 45590 kPa | – | 1434.2
318.29 K, 60790 kPa | – | 1489.3
318.29 K, 75990 kPa | – | 1539.5
318.29 K, 91180 kPa | – | 1588.5
318.29 K, 101320 kPa | – | 1619.2
323.15 K, 101.33 kPa | 900.247 kg/m3 | –
328.16 K, 101.33 kPa | 896.647 kg/m3 | –
333.16 K, 101.33 kPa | 893.033 kg/m3 | –
338.15 K, 101.33 kPa | 889.4 kg/m3 | –
343.15 K, 101.33 kPa | 885.746 kg/m3 | –
348.15 K, 101.33 kPa | 882.068 kg/m3 | –
353.15 K, 101.33 kPa | 878.362 kg/m3 | –
358.15 K, 101.33 kPa | 874.626 kg/m3 | –

Details | refractive index
[3] | 1.4258
